Test [1] concerns Staphylococcus aureus ATCC BAA-976. In words: MIC, broth microdilution, MDR/BPSA reference strain. In kind it is cell-based. The source says:
(§1) These strains included susceptible, multidrug-resistant, and biofilm-producing strains of S. epidermidis and S. aureus (MSSE, MDR/BPSE, and MDR/BPSA, respectively). The cornerstone antibiotic linezolid served as a positive control (Table 1). The impact of structural modifications at the aryloxy fragment and the aromatic moiety bound to the propyl linker on the inhibitory activity was initially investigated. […] Further optimization focused on evaluating the impact of the type of substituent and its position on the arylsulfonamide fragment’s activity.
(§2) 2 Biological assay protocols
(§3) Microbiological tests were carried out under aseptic conditions in a laminar chamber of the 2nd […]
(§4) (BioTectum 1.2, Alchem Poland). The assessment of antimicrobial activity was carried out for final compounds in the form of free bases, soluble in DMSO (Merck, Germany), at the initial […]
(§5) concentration of 1 mg/mL. […]
(§6) were provided by Cayman Chemical, USA.
(§7) The activity of all newly synthesized compounds was tested in vitro on a panel of selected reference strains from the American Type Culture Collection (ATCC) of Gram-positive […]
(§8) 2.2 Effect of evaluated compounds on planktonic cells
(§9) The susceptibility of three reference bacterial strains (Staphylococcus epidermidis ATCC […]
(§10) Table S1) and 81 clinical MDR S. epidermidis (Table S2) to the tested compounds was assessed by determining the MIC value (Minimal Inhibitory Concentration) by microdilution in a liquid medium in 96-well flat-bottom cell culture plates (Nest Biotechnology Scientific, USA). The antibacterial properties of the compo unds were tested in the concentration range from 50 µg/mL to 0.1 µg/mL by making a series of double dilutions of the compound in liquid Mueller -Hinton II Broth Cation Adjusted (MHB II, BBL TM, USA) according to the European Committee on […]
(§11) Antimicrobial Susceptibility Testing guidelines (EUCAST).2,3 The determinations were performed twice. The MIC50 and MIC90 values were determined for each of the tested

Test [2] concerns Staphylococcus epidermidis ATCC 35984. In words: MIC, broth microdilution, MDR/BPSE reference strain. The format is cell-based. As to conditions: for MIC: Staphylococcus epidermidis, ATCC35984, read-out: MIC MDR/BPSE, Staphylococcus epidermidis ATCC 35984.
Description: as §1, §2, §3, §4, §5, §6, §7, §8, §9, §10, §11

The test system of test [3] is Staphylococcus epidermidis ATCC 12228. In words: MIC, broth microdilution, MSSE reference strain. In kind it is cell-based.
Description: as §1, §2, §3, §4, §5, §6, §7, §8, §9, §10, §11

The next test relates to BJ cells. In words: Cytotoxicity, MTT assay, skin fibroblasts. The conditions noted are these: Homo sapiens, MTT, 24 h, n = 3. In kind it is cell-based, human. On the procedure: (§12) The following cell models were used in the research: rat cardiomyocytes (H9c2 line) and human skin fibroblasts (BJ line). All cell lines used in the work are commercially available and were purchased from ATCC banks (the American Type Culture Collection, Manassas, VI, USA). Cell cultures were carried out in an incubator under standard conditions (37°C, 5% CO 2).
(§13) Culture media (Dulbecco's Modified Eagle's Medium -DMEM (H9c2) and Eagle's Minimum Essential Medium-EMEM (BJ) were supplemented with 10% bovine serum and a 1% mixture of penicillin and streptomycin antibiotics. […]
(§14) doxorubicin (a cytotoxic drug) were used as reference and positive control, respectively. […]
(§15) solution (5 mg/mL) was transferred into culture medium of incubated cells. After 3 h, once dark crystals of formazan were produced in cells, medium was aspirated and 100 μ L of DMSO was added to dissolve formazan. Absorbance of DMSO solution was read on a multiwell plate reader (Spectra Max iD3, Molecular Devices) at 570 nm. In order to determine viability, absorbance of experimental wells was divided by absorbance of contro l well (not treated) and multiplied by 100 (%). Three separate experiments were performed. IC 50 was calculated using non-linear regression method in OriginPro software. […]

Another test relates to H9c2 cells. In words: Cytotoxicity, MTT assay, cardiomyocytes. In kind it is cell-based. The conditions noted are these: Rattus norvegicus, 24 h, n = 3. As to the method: as §12, §13, §14
as §15, with “incubated with studied compound in appropriate concentration for next 24 h. Then MTT solution (5” for “solution (5”

Test [4] has as its system Pseudomonas aeruginosa ATCC 27853. In words: MIC, Gram-negative reference strain. As to conditions: Pseudomonas aeruginosa, ATCC27853, read-out: MIC P. aeruginosa. In kind it is cell-based. On the procedure:
as §2, §3, §4, §5, §6, §7, §8, §9, §10, §11

Test [5] has as its system Escherichia coli ATCC 25922. As to the kind of experiment: MIC, Gram-negative reference strain. The format is cell-based. As to conditions: Escherichia coli, ATCC25922. As to the method:
as §2, §3, §4, §5, §6, §7, §8, §9, §10, §11

Test [6] has as its system Acinetobacter baumannii ATCC 19606. As to the kind of experiment: MIC, Gram-negative reference strain. As to conditions: Acinetobacter baumannii, ATCC19606. In kind it is cell-based. As to the method:
as §2, §3, §4, §5, §6, §7, §8, §9, §10, §11

In a further test the test system is Gram-negative bacteria. As to the kind of experiment: MIC, tested Gram-negative bacteria (hit screening). The format is cell-based. The source says: (§16) Despite numerous efforts to ensure sterility and encourage the prudent use of currently available antibiotics, morbidity rates persist at high levels. These findings underscore the pressing need for the development of a novel class of potential antimicrobial agents targeting multidrug-resistant and biofilm-forming S. epidermidis. […] Herein we present the discovery of new aryloxy[1-(thien-2-yl)propyl]piperidines with improved antibacterial activity compared to compound I, evaluated against a spectrum of clinical S. epidermidis isolates (81 strains), including multidrug-resistant and biofilm-forming strains. We also determined their bacteriostatic/bactericidal properties and conducted a real-time analysis of bacterial growth. Finally, we evaluated the ability of the most promising compound, 25, in terms of its activity and safety over mammalian cell lines, to disrupt the staphylococcal cell membranes of clinical S. epidermidis.

The test system of test [7] is reference susceptible and multidrug-resistant S. epidermidis and S. aureus strains. As to the kind of experiment: MIC, reference S. epidermidis and S. aureus strains (hit screening). In kind it is cell-based.
Description: as §16

Where [8] appears, read: ATCCBAA976, Staphylococcus aureus ATCC BAA-976, read-out: MIC MDR/BPSA.
The mark [9] stands for this setting: ATCC12228, Staphylococcus epidermidis ATCC 12228, read-out: MIC MSSE.
Where [10] appears, read: Staphylococcus aureus, ATCCBAA976, read-out: MIC MDR/BPSA.

Converted amounts (≈) assume the structure as drawn. Read-outs that look alike come from different tables or passages of the source.

`O=S(=O)(NC1CCN(CCC(Oc2ccc(C(F)(F)F)cc2)c2cccs2)CC1)c1ccc(Cl)cc1` (stereo not shown) [Compound 23]: the MIC in test [1] (setting [8]) turned out to be 6.25 µg/mL (≈ 11.2 µM); in [2], 0.2 µg/mL (≈ 0.358 µM); in test [3] (setting [9]), 12.5 µg/mL (≈ 22.4 µM).
With `O=S(=O)(NC1CCN(CCC(Oc2ccc(C(F)(F)F)cc2)c2cccs2)CC1)c1ccccc1Cl` (stereo not shown) [Compound 16], the MIC was 50 µg/mL (≈ 89.4 µM) in [1] (setting [8]), 6.25 µg/mL (≈ 11.2 µM) in [2] and 50 µg/mL (≈ 89.4 µM) in [3] (setting [9]).
In the case of `O=C(Nc1ccc(F)cc1)NC1CCN(CCC(Oc2ccc(C(F)(F)F)cc2)c2cccs2)CC1` (stereo not shown) [Compound 26], the MIC is at least 6.25 µg/mL in test [2] and 50 µg/mL (≈ 95.9 µM) in [3] (setting [9]).
On to `O=S(=O)(NC1CCN(CCC(Oc2ccc(C(F)(F)F)cc2)c2cccs2)CC1)c1ccc(F)cc1` (stereo not shown) [Compound 22], for which the MIC is 6.25 µg/mL (≈ 11.5 µM) in test [1] (setting [8]), 1.6 µg/mL (≈ 2.95 µM) in test [2] and 6.25 µg/mL (≈ 11.5 µM) in test [3] (setting [9]).
In the case of `COc1cccc(S(=O)(=O)NC2CCN(CCC(Oc3ccc(C(F)(F)F)cc3)c3cccs3)CC2)c1` (stereo not shown) [Compound 20], the MIC in test [1] (setting [8]) is 25 µg/mL (≈ 45.1 µM); in test [2], 0.1 µg/mL (≈ 0.18 µM); in test [3] (setting [9]), 50 µg/mL (≈ 90.1 µM).
Regarding `O=C(Nc1ccc(Cl)cc1)NC1CCN(CCC(Oc2ccc(C(F)(F)F)cc2)c2cccs2)CC1` (stereo not shown) [Compound 27], the MIC in [2] was at least 6.25 µg/mL; in test [3] (setting [9]) it was 50 µg/mL (≈ 92.9 µM).
Turning to `O=S(=O)(NC1CCN(CCC(Oc2ccc(C(F)(F)F)cc2)c2cccs2)CC1)c1ccccc1` (stereo not shown) [Compound 15], the MIC in test [1] (setting [8]) turned out to be 12.5 µg/mL (≈ 23.8 µM); in test [2], 6.25 µg/mL (≈ 11.9 µM); in [3] (setting [9]), 12.5 µg/mL (≈ 23.8 µM).
With `COc1cccc2c1C(=O)c1c(O)c3c(c(O)c1C2=O)C[C@@](O)(C(=O)CO)C[C@@H]3O[C@H]1C[C@H](N)[C@H](O)[C@H](C)O1` [doxorubicin, reference compound], the IC50 with BJ cells and in the test with H9c2 cells was 0.39 µg/mL (≈ 0.718 µM) each time.
Consider `O=S(=O)(NC1CCN(CCC(Oc2cccc(C(F)(F)F)c2)c2cccs2)CC1)c1cccc(Cl)c1` (stereo not shown) [Compound 13], for which the MIC is 3.12 µg/mL (≈ 5.59 µM) in test [1] (setting [10]); 3.12 µg/mL (≈ 5.59 µM) in test [2]; 3.12 µg/mL (≈ 5.59 µM) in test [3] (ATCC12228, read-out: MIC MSSE).
`O=S(=O)(NC1CCN(CCC(Oc2ccc(C(F)(F)F)cc2)c2cccs2)CC1)c1cccc(F)c1` (stereo not shown) [Compound 17]: the figures for the MIC in test [1] (setting [10]), in [2] and in [3] (setting [9]) were 6.25 µg/mL (≈ 11.5 µM), 6.25 µg/mL (≈ 11.5 µM) and 12.5 µg/mL (≈ 23 µM), respectively.
Consider `Cc1cccc(S(=O)(=O)NC2CCN(CCC(Oc3ccc(C(F)(F)F)cc3)c3cccs3)CC2)c1` (stereo not shown) [Compound 19], for which the MIC was 50 µg/mL (≈ 92.8 µM) in test [1] (setting [8]), 0.2 µg/mL (≈ 0.371 µM) in [2] and 50 µg/mL (≈ 92.8 µM) in [3] (setting [9]).
`O=C(Nc1ccccc1)NC1CCN(CCC(Oc2ccc(C(F)(F)F)cc2)c2cccs2)CC1` (stereo not shown) [Compound 24]: the MIC in test [1] (setting [10]) came out at 6.25 µg/mL (≈ 12.4 µM); in [2], 6.25 µg/mL (≈ 12.4 µM); in test [3] (ATCC12228, read-out: MIC MSSE), 6.25 µg/mL (≈ 12.4 µM).
Turning to `O=S(=O)(NC1CCN(CCC(Oc2cccc(C(F)(F)F)c2)c2ccccc2)CC1)c1cccc(Cl)c1` (stereo not shown) [I], the MIC in test [1] (setting [10]) was 3.12 µg/mL (≈ 5.65 µM); in [2] it was 3.12 µg/mL (≈ 5.65 µM); in test [4], 50 µg/mL (≈ 90.4 µM); in test [5], 50 µg/mL (≈ 90.4 µM); in test [6], 50 µg/mL (≈ 90.4 µM); with Gram-negative bacteria (tested Gram-negative bacteria), at least 25 µg/mL. The MIC in test [3] (ATCC12228, read-out: MIC MSSE) is 3.12 µg/mL (≈ 5.65 µM); in test [7], 3.12 to 6.25 µg/mL (≈ 5.65 to 11.3 µM). Further, the “MIC MDR/BPSE” value in test [2] (Staphylococcus epidermidis ATCC 35984) is 6.25 µg/mL (≈ 11.3 µM). For the same compound, the “activity towards Gram-negative bacteria” value in the test with Gram-negative bacteria is listed as “Not active”.

For the origin of these results see publication PMC10945555, “Improving Activity of New Arylurea Agents against Multidrug-Resistant and Biofilm-Producing Staphylococcus epidermidis” (ACS Medicinal Chemistry Letters, 2024).
